Experimental data: the supplement of paper PMC4862054

Columns and labels:
Assay in all cases: normalised viability (% of control), CellTiter-Blue; higher = more viable cells (about 100 = DMSO control)
[1] = test system: HDQ-P1; conditions: 30 nM; incubation time: 72 h
Procedure, shortened: (§1)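 The reported figure is normalised viability at a single listed concentration of the series. Breast cancer cell lines (20 µl suspension) went onto 384-well plates holding compound in 5 µl medium for 72 h. CellTiter-Blue (2.5 µl, 2 h, 37 °C) was read by fluorescence at 560/590 nm, and each plate was scaled to vehicle at 100 and a positive kill control at 0.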

[2] = test system: MDA-MB-436; conditions: 1000 nM; incubation time: 72 h
Procedure, shortened: as §1

[3] = test system: MDA-MB-468; conditions: 1000 nM; incubation time: 72 h
Procedure, shortened: as §1

[4] = test system: MFM-223; conditions: 1000 nM; incubation time: 72 h
Procedure, shortened: as §1

[5] = test system: MDA-MB-453; conditions: 30 nM; incubation time: 72 h
Procedure, shortened: as §1

[6] = test system: HCC1599; conditions: 1000 nM; incubation time: 72 h
Procedure, shortened: as §1

[7] = test system: CAL-148; conditions: 30 nM; incubation time: 72 h
Procedure, shortened: as §1

[8] = test system: CAL-85-1; conditions: 30 nM; incubation time: 72 h
Procedure, shortened: as §1

[9] = test system: CAL-51; conditions: 30 nM; incubation time: 72 h
Procedure, shortened: as §1

[10] = test system: HCC1937; conditions: 1000 nM; incubation time: 72 h
Procedure, shortened: as §1

[11] = test system: HCC1143; conditions: 1000 nM; incubation time: 72 h
Procedure, shortened: as §1

[12] = test system: SK-BR-3; conditions: 1000 nM; incubation time: 72 h
Procedure, shortened: as §1

[13] = test system: BT-549; conditions: 1000 nM; incubation time: 72 h
Procedure, shortened: as §1

[14] = test system: CAL-120; conditions: 1000 nM; incubation time: 72 h
Procedure, shortened: as §1

[15] = test system: Hs578T; conditions: 1000 nM; incubation time: 72 h
Procedure, shortened: as §1

[16] = test system: MDA-MB-231; conditions: 1000 nM; incubation time: 72 h
Procedure, shortened: as §1

[17] = test system: HDQ-P1; conditions: 10 nM; incubation time: 72 h
Procedure: (§2)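 DSRT, CellTiter-Blue viability, 72 h incubation. Signal is normalised to DMSO and benzethonium chloride controls. Value is the normalised response at dose 3.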

[18] = test system: MDA-MB-436; conditions: 100 nM; incubation time: 72 h
Procedure: as §2

[19] = test system: BT-474; conditions: 100 nM; incubation time: 72 h
Procedure: as §2

[20] = test system: MDA-MB-468; conditions: 100 nM; incubation time: 72 h
Procedure: as §2

[21] = test system: MFM-223; conditions: 100 nM; incubation time: 72 h
Procedure: as §2

[22] = test system: MDA-MB-453; conditions: 10 nM; incubation time: 72 h
Procedure: as §2

[23] = test system: HCC1599; conditions: 100 nM; incubation time: 72 h
Procedure: as §2

[24] = test system: DU-4475; conditions: 10 nM; incubation time: 72 h
Procedure: as §2

[25] = test system: CAL-148; conditions: 10 nM; incubation time: 72 h
Procedure: as §2

[26] = test system: CAL-85-1; conditions: 10 nM; incubation time: 72 h
Procedure: as §2

[27] = test system: CAL-51; conditions: 10 nM; incubation time: 72 h
Procedure: as §2

[28] = test system: HCC1937; conditions: 100 nM; incubation time: 72 h
Procedure: as §2

[29] = test system: HCC1143; conditions: 100 nM; incubation time: 72 h
Procedure: as §2

[30] = test system: SK-BR-3; conditions: 100 nM; incubation time: 72 h
Procedure: as §2

[31] = test system: BT-549; conditions: 100 nM; incubation time: 72 h
Procedure: as §2

[32] = test system: CAL-120; conditions: 100 nM; incubation time: 72 h
Procedure: as §2

[33] = test system: Hs578T; conditions: 100 nM; incubation time: 72 h
Procedure: as §2

[34] = test system: MDA-MB-231; conditions: 100 nM; incubation time: 72 h
Procedure: as §2

Row | Compound | normalised viability [1] [%] | normalised viability [2] [%] | normalised viability [3] [%] | normalised viability [4] [%] | normalised viability [5] [%] | normalised viability [6] [%] | normalised viability [7] [%] | normalised viability [8] [%] | normalised viability [9] [%] | normalised viability [10] [%] | normalised viability [11] [%] | normalised viability [12] [%] | normalised viability [13] [%] | normalised viability [14] [%] | normalised viability [15] [%] | normalised viability [16] [%] | normalised viability [17] [%] | normalised viability [18] [%] | normalised viability [19] [%] | normalised viability [20] [%] | normalised viability [21] [%] | normalised viability [22] [%] | normalised viability [23] [%] | normalised viability [24] [%] | normalised viability [25] [%] | normalised viability [26] [%] | normalised viability [27] [%] | normalised viability [28] [%] | normalised viability [29] [%] | normalised viability [30] [%] | normalised viability [31] [%] | normalised viability [32] [%] | normalised viability [33] [%] | normalised viability [34] [%]
1 | CN(C)C[C@@H]1CCn2cc(c3ccccc32)C2=C(C(=O)NC2=O)c2cn(c3ccccc23)CCO1 [Ruboxistaurin] | 84.3 | 49.2 | 85.2 | 80.8 | 99.9 | 91.3 | 116 | 105 | 101 | 74 | 109 | 86.6 | 87.6 | 110 | 99.8 | 88.2 | 82.6 | 91.6 | 98.7 | 90.1 | 105 | 96.7 | 111 | 101 | 112 | 117 | 91.8 | 85.3 | 128 | 82.2 | 89 | 126 | 68.9 | 95.8
2 | CN1CCN(CCOc2cc(OC3CCOCC3)c3c(Nc4c(Cl)ccc5c4OCO5)ncnc3c2)CC1 [Saracatinib] | 107 | 117 | 87.2 | 102 | 101 | 98 | 78.7 | 82.6 | 103 | 85 | 70.6 | 90 | 85.9 | 71.9 | 93.8 | 61.6 | 104 | 109 | 105 | 104 | 99.6 | 105 | 108 | 105 | 80.7 | 93.9 | 106 | 96.2 | 84.3 | 85.3 | 112 | 87.7 | 95.7 | 76.5
3 | Cn1cncc1[C@@](N)(c1ccc(Cl)cc1)c1ccc2c(c1)c(-c1cccc(Cl)c1)cc(=O)n2C [Tipifarnib] | 68 | 82.9 | 95.5 | 67.7 | 82.2 | 62.2 | 74.1 | 70.1 | 95.5 | 43.6 | 59.1 | 66.1 | 75.8 | 47.4 | 69.2 | 61.4 | 89.7 | 87.9 | 102 | 96.7 | 70.3 | 93 | 72.7 | 92.8 | 83.2 | 85.3 | 99.9 | 64.9 | 61.6 | 57.8 | 95.3 | 57 | 70.1 | 71.8
